Data taken from patent US20230234996A1, “PI3K GAMMA INHIBITOR PEPTIDE FOR TREATMENT OF FIBROPROLIFERATIVE VASCULAR DISEASES” (Kither Biotech S.r.l., priority 2020, published 2023).
Entries after “also recorded” stand apart in the source; their conditions may differ.

Key:
[1] = tested on: intracellular cAMP in primary VSMC; assay: cAMP dynamics with FRET-based TEpacVV biosensor; format: cell-based, mouse; conditions: for cAMP level regulated by PDE3 (cilostamide response): cilostamide 1 μM; for cAMP level regulated by PDE4 (rolipram response): rolipram 1 μM; for cAMP production in response to forskolin: Rmax = forskolin 2.5 μM + IBMX 200 μM
Method: A. Left panel: Average changes in intracellular cAMP concentration ([cAMP]i) in primary VSMC from WT (top), PI3Kγ KO (middle) and PI3Kγ-KD (bottom) mice and expressing the ^TEpac^VV biosensor. The black line represents the average F480/F535 emission ratio over time in response to 2.5 μM forskolin (fsk) stimulation and fsk (2.5 μM)+IBMX (200 μM) treatment. B. Histograms representing the mean values for forskolin responses. Results are expressed as a percentage of the maximal ratio change (% of Rmax(IBMX response)) determined by the final application of forskolin (2.5 μM)+IBMX (200 μM). Data shown are the means±SEM. (n=5 mice). Data are presented as mean±SEM and were compared using a Kruskal-Wallis test. C. Homogenous time-resolved fluorescence (HTRF) dosage of intracellular cAMP from WT, PI3Kγ KO or PI3Kγ KD primary VSMC after 30 min treatment with vehicle or 0.5 μM Forskolin.
A. Average changes in [cAMP]i in primary VSMC from WT (top), PI3Kγ KO (middle) and PI3Kγ-KD (bottom) mice and expressing the ^TEpac^VV biosensor. The trace indicates the average F480/F535 emission ratio over time in response to 2.5 μM forskolin, cilostamide (1 μM), rolipram (1 μM) and forskolin (2.5 μM)+IBMX (200 μM) treatment. B. Histograms representing the mean values for rolipram and cilostamide responses. Results are expressed as a percentage of the maximal ratio change (% of Rmax (IBMX response)) determined by the final application of forskolin (2.5 μM)+IBMX (200 μM). Data are presented as mean±SEM (n>22 with 4 different mice) and were compared using a Kruskal-Wallis test. C. Phosphodiesterase activity detected in PDE4D immunoprecipitates from primary VSMC. Data shown are the means±SEM and compared using one-way ANOVA followed by Bonferroni post-hoc test (n=3). D. Representative Western blot of PDE4D immunoprecipitates.
Measurement of cAMP dynamics: Primary SMC were seeded on coverslips and infected with the ^TEpac^VV-encoding type-5 adenovirus (˜100 particles per SMC) as described elsewhere. Coverslips were placed in a microscope chamber continually perfused (2 mL·min^−1) with BBS buffer (125 mM NaCl, 2 mM CaCl2), 1 mM MgCl2, 1.25 mM NaH2PO4, 26 mM NaHCO3, 25 mM glucose) saturated with 95% 02-5% CO2. Ratiometric analyses were performed as follows: fluorescence was excited with a LED source at 435 nm and fluorescence emission was monitored with a dichroic mirror (T450LPXR) and alternating emission filters for the donor (HQ480/40) and acceptor (D535/40). Pairs of images were recorded with an Orca-ER CCD camera (Hamamatsu Photonics, Japan), at 20-s intervals. Changes in [cAMP]i are expressed as the ratio of donor fluorescence (F480) to acceptor fluorescence (F535). The ratios were multiplied by a same constant for all experiments, such that the baseline ratio was 1 in basal conditions. The maximum ratio change (Rmax) was obtained by stimulating cells with 2.5 μM forskolin and […] IBMX (15879, Sigma Aldrich). Filters and mirrors were obtained from AHF analysentechnik AG, Tübingen, Germany.

PKA = conditions: reference [19]; cited from earlier work
[2] = tested on: C5a-mediated Akt phosphorylation (Ser-473), relying on the catalytic activity of PI3Kγ, RAW264 macrophages; assay: C5a-mediated Akt phosphorylation in macrophages (Western blot); format: cell-based; conditions: then C5a 5 min
Method: A. Schematic representation of the cell-permeable PI3Kγ competing peptide. The 126-150 region of PI3Kγ was fused to the cell-penetrating peptide Penetratin 1 (P1). A control peptide was generated by insertion of two point mutations (K>A and R>A at position 1 and 5 of the PI3Kγ sequence, respectively). B. RAW macrophages were pre-treated with vehicle, the PI3Kγ peptide (10 μM) or the PI3Kγ kinase inhibitor AS605240 (1 μM) for 1 hour and then with C5a (50 μM) for 5 minutes. Representative Western blot images of phospho-AKT (Ser-473) and total AKT (left) and ratio quantification (right) are shown. GAPDH was used as loading control. n=3. C. Incorporation by primary VSMC of a FITC-labelled PI3Kγ peptide at 1 h, 5 h, 24 h and 30 h after incubation. D. Quantification of FITC-associated fluorescence intensity inside VSMC area. C5a-mediated Akt phosphorylation in macrophages: After 3 h starvation in serum-free medium, RAW264 macrophages were pre-treated with the PI3Kγ competing peptide (25 μM) or the PI3Kγ inhibitor AS-605240 (1 μM; MedChemExpress) or DMSO for 30 min and stimulated for 5 min with 50 nM of C5a (Sigma Aldrich). Akt phosphorylation at Ser-473 was detected by Western blot using a Ser473 Akt-specific antibody (Cell Signaling Technology).

primary VSMC = assay: Mouse SMC proliferation by BrdU incorporation; format: cell-based; conditions: for cell proliferation (BrdU incorporation): 25 μM peptide 24 h, PDGF 25 ng/ml with or without forskolin 25 μM, vs control peptide
Method: A. Representatives cross sections of injured femoral arteries stained with Masson Trichrome from the indicated hematopoietic chimeras. Scale bars=100 μM. Irradiated WT, PI3Kγ KD (KD) and PI3Kγ KO recipient mice were transplanted with bone marrow from the indicated donors to obtain the indicated chimeras. Irradiated WT mice were transplanted with bone marrow from WT, PI3Kγ KD or PI3Kγ KO to obtain the following hematopoietic chimeras: WT>WT, KD>WT and KO>WT. Irradiated KD recipient mice were transplanted with bone marrow from WT or PI3Kγ KD donor mice (WT>KD; KD>KD). Irradiated KO recipient mice were transplanted with bone marrow from WT or KO donors (WT>KO and KO>KO). B. Quantitative analysis of intima/media ratios of indicated hematopoietic chimeras. Histogram represents the neointima/media ratio for each chimera (n>6 mice for each group). Data are presented as mean±SEM and were compared using a one-way ANOVA test. C. Schematic representation of the experimental model used to investigate PI3Kγ implication in the control of SMC proliferation. D. Western blot of PI3Kγ expression in each genotype. […] (5<n<12 cultures for each genotype). Data are presented as mean±SEM and were compared using a one-way ANOVA test.
A, B, C. […] BrdU was added during the last 18 h (n=8 cultures for each genotype). Data are presented as mean±SEM and were compared using a one-way ANOVA test. D. Schematic model of PI3Kγ implication in VSMC proliferation. VSMC proliferation is induced by PDGF stimulation. […] This PI3Kγ recruitment could also concentrate phosphodiesterases (PDE) that counterbalance cAMP production by adenylate cyclase (AC) induced by other signals. By these mechanisms, PI3Kγ acts as an amplifier of VSMC synthetic transition.
Measure of mouse SMC proliferation: Primary mouse SMCs were sub-cultured onto 48-well cell culture plates in complete medium. Cells were treated or not with PDGF (520-BB-050, R&D Systems) and forskolin (F3917, Sigma Aldrich) for 24 h. For blocking peptide experiments, cells were incubated 24 h with 25 μM of control ([…]—SEQ ID No.: 13) or blocking peptide ([…]—SEQ ID No.: 14). Peptides were synthesized by GenScript (GenScript, Piscataway, N.J.). BrdU (00-0103, Invitrogen) incorporation assays were performed by classical immunofluorescence procedure using anti-BrdU antibody (11-5071, eBioscience) and DAPI. Proliferation rate is measured as the ratio of BrdU positive nuclei over total nuclei and expressed as fold increase.

PDE4D = PDE4D function in VSMC; format: cell-based; conditions: summary statement
[3] = forskolin-stimulated PI3Kγ-KD VSMC
[4] = forskolin-stimulated PI3Kγ-KO VSMC

## CN(C(=O)CCCOc1ccc2[nH]c(=O)ccc2c1)C1CCCCC1 [cilostamide]
[1]; [3]
  cAMP level regulated by PDE3 (cilostamide response): 17 % of IBMX response
[1]; [4]
  cAMP level regulated by PDE3 (cilostamide response): 49 % of IBMX response
[1]; forskolin-stimulated WT VSMC
  cAMP level regulated by PDE3 (cilostamide response): 25 % of IBMX response

## RQIKIWFQNRRMKWKKGAATHASPGQIHLVQRHPPSEESQAF (control peptide)
PKA
  interaction with PKA: does not interact with PKA

## COc1ccc(C2CNC(=O)C2)cc1OC1CCCC1 (stereo not drawn) [rolipram]
[1]; [3]
  cAMP level regulated by PDE4 (rolipram response): 73 % of IBMX response
[1]; [4]
  cAMP level regulated by PDE4 (rolipram response): 43 % of IBMX response
[1]; forskolin-stimulated WT VSMC
  cAMP level regulated by PDE4 (rolipram response): 67 % of IBMX response

## C=C[C@@]1(C)CC(=O)[C@]2(O)[C@@]3(C)[C@@H](O)CCC(C)(C)[C@@H]3[C@H](O)[C@H](OC(C)=O)[C@@]2(C)O1 [forskolin]
[1]; 2.5 μM forskolin, PI3Kγ-KO primary VSMC
  cAMP production in response to forskolin: 52.57 % of IBMX response
[1]; 2.5 μM forskolin, WT primary VSMC
  cAMP production in response to forskolin: 24.09 % of IBMX response
[1]; 2.5 μM forskolin, p=0.03
  increase of forskolin cAMP response, PI3Kγ-KO compared to WT: 2.2 folds

## RQIKIWFQNRRMKWKKGKATHRSPGQIHLVQRHPPSEESQAF (KIT2014) [PI3Kγ peptide, The 126-150 region of PI3Kγ fused to the cell-penetrating peptide Penetratin 1 (P1)]
[2]; RAW macrophages pre-treated with PI3Kγ peptide (25 μM b74; 10 μM b24)
  C5a-mediated Akt phosphorylation in macrophages: unaltered
Primary VSMC; PI3Kγ-KD primary VSMC
  cell proliferation (BrdU incorporation): inhibited cell proliferation
Primary VSMC; PI3Kγ-KO primary VSMC
  cell proliferation (BrdU incorporation): no difference was observed
Primary VSMC; VSMC in vitro, response to PDGF and forskolin, genotype not stated (summary statement)
  VSMC proliferation: abolished VSMC proliferation; also recorded: inhibits VSMC proliferation
Primary VSMC; WT primary VSMC
  cell proliferation (BrdU incorporation): inhibited cell proliferation
[1]; peptide conjugated with Penetratin 1, summary statement
  cAMP levels in VSMC: increases their cAMP levels
PDE4D
  PDE4D function: specifically blunted PDE4D function

## O=C1NC(=O)/C(=C\c2ccc3nccnc3c2)S1 [AS-6052540]
[2]; RAW macrophages pre-treated with inhibitor 1 μM
  C5a-mediated Akt phosphorylation in macrophages: significantly reduced
